Laboratory results taken from ChEMBL document CHEMBL1201862, “PubChem BioAssay data set” (2004).
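Interpolation was linear, between the two tested concentrations surrounding the appropriate level; five concentrations were tested over 48 hours in 96-well plates. GI50 is the concentration that inhibits growth by half.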 Calls of active or inactive are those of the source. Rule as the data show it: active = GI50 up to about 1.1 µM and inactive = higher.

Experiments:
Assay in all cases: DTP human tumour cell line panel, 48 h
[1] = tested on: 786-0
[2] = tested on: A498
[3] = tested on: A549
[4] = tested on: ACHN
[5] = tested on: BT-549
[6] = tested on: CAKI-1
[7] = tested on: CCRF-CEM
[8] = tested on: COLO 205
[9] = tested on: DU-145
[10] = tested on: EKVX
[11] = tested on: HCC 2998
[12] = tested on: HCT-116
[13] = tested on: HCT-15
[14] = tested on: HL-60
[15] = tested on: HOP-62
[16] = tested on: HOP-92
[17] = tested on: HT-29
[18] = tested on: Hs-578T
[19] = tested on: IGROV-1
[20] = tested on: K562
[21] = tested on: KM12
[22] = tested on: LOX IMVI
[23] = tested on: M14
[24] = tested on: MCF7
[25] = tested on: MDA-MB-231
[26] = tested on: MDA-MB-435
[27] = tested on: MDA-N
[28] = tested on: MOLT-4
[29] = tested on: Malme-3M
[30] = tested on: NCI-H226
[31] = tested on: NCI-H23
[32] = tested on: NCI-H460
[33] = tested on: NCI-H522
[34] = tested on: NCI/ADR-RES
[35] = tested on: OVCAR-3
[36] = tested on: OVCAR-4
[37] = tested on: OVCAR-5
[38] = tested on: OVCAR-8
[39] = tested on: PC-3
[40] = tested on: RPMI-8226
[41] = tested on: RXF 393
[42] = tested on: SF-268
[43] = tested on: SF-295
[44] = tested on: SF-539
[45] = tested on: SK-MEL-28
[46] = tested on: SK-MEL-2
[47] = tested on: SK-MEL-5
[48] = tested on: SK-OV-3
[49] = tested on: SN12C
[50] = tested on: SNB-19
[51] = tested on: SNB-75
[52] = tested on: SR
[53] = tested on: SW-620
[54] = tested on: T47D
[55] = tested on: TK-10
[56] = tested on: U-251
[57] = tested on: UACC-257
[58] = tested on: UACC-62
[59] = tested on: UO-31

## CCOC1OC(C)(C=C(C#N)C#N)CCC1C (centres undefined)
[1]
  GI50: 25.9 µM (inactive)
[2]
  GI50: 22.4 µM (inactive)
[3]
  GI50: 45.5 µM (inactive)
[4]
  GI50: 37.5 µM (inactive)
[5]
  GI50: 21.4 µM (inactive)
[6]
  GI50: 33.2 µM (inactive)
[7]
  GI50: 30.3 µM (inactive)
[8]
  GI50: 36.8 µM (inactive)
[9]
  GI50: 39.2 µM (inactive)
[10]
  GI50: 33.3 µM (inactive)
[11]
  GI50: 32.1 µM (inactive)
[12]
  GI50: 29.9 µM (inactive)
[13]
  GI50: 25.5 µM
[14]
  GI50: 26.9 µM (inactive)
[15]
  GI50: 22.9 µM (inactive)
[16]
  GI50: 48.5 µM (inactive)
[17]
  GI50: 27.6 µM (inactive)
[18]
  GI50: 36 µM (inactive)
[19]
  GI50: 10.5 µM (inactive)
[20]
  GI50: 16.8 µM (inactive)
[21]
  GI50: > 74 µM (inactive)
[22]
  GI50: 22.8 µM (inactive)
[23]
  GI50: 35.5 µM (inactive)
[24]
  GI50: 35.2 µM (inactive)
[25]
  GI50: 88.1 µM (inactive)
[26]
  GI50: 39.1 µM (inactive)
[27]
  GI50: 47.2 µM (inactive)
[28]
  GI50: 33.3 µM (inactive)
[29]
  GI50: 43.3 µM (inactive)
[30]
  GI50: 23 µM (inactive)
[31]
  GI50: 29.7 µM (inactive)
[32]
  GI50: 34.2 µM (inactive)
[33]
  GI50: 15.4 µM (inactive)
[34]
  GI50: 35.2 µM (inactive)
[35]
  GI50: 24.5 µM (inactive)
[36]
  GI50: 49.3 µM (inactive)
[37]
  GI50: > 85.7 µM (inactive)
[38]
  GI50: 27.7 µM (inactive)
[39]
  GI50: 49 µM (inactive)
[40]
  GI50: 21 µM (inactive)
[41]
  GI50: 53.6 µM (inactive)
[42]
  GI50: 43.2 µM (inactive)
[43]
  GI50: > 67.5 µM (inactive)
[44]
  GI50: 23.8 µM (inactive)
[45]
  GI50: 47.2 µM (inactive)
[46]
  GI50: > 100 µM (inactive)
[47]
  GI50: 53.8 µM (inactive)
[48]
  GI50: > 100 µM (inactive)
[49]
  GI50: 33.7 µM (inactive)
[50]
  GI50: > 57.3 µM (inactive)
[51]
  GI50: 14.6 µM (inactive)
[52]
  GI50: 22.1 µM (inactive)
[53]
  GI50: 37.2 µM (inactive)
[54]
  GI50: 44.2 µM (inactive)
[55]
  GI50: 59.6 µM (inactive)
[56]
  GI50: 52.7 µM (inactive)
[57]
  GI50: > 71.6 µM (inactive)
[58]
  GI50: 38 µM (inactive)
[59]
  GI50: 33.8 µM (inactive)
